Data reported in article PMC9655874, “Analysis of Volatile Secondary Metabolites in Ocimum basilicum Cell Suspensions: Inhibition, In Silico Molecular Docking, and an ADMET Analysis against Proteolytic Enzymes of Rhynchophorus ferrugineus” (Plants, 2022).
≈ marks a conversion by molar mass, not a printed value. Where “and” joins values, the source holds several entries; their conditions need not be identical. Equal entries are not always repeated. One block for each compound: values may come before it.

What was measured:
[1] = system: R. ferrugineus adults; assay: whole plant or invertebrate; format: in vivo; conditions: Rhynchophorus ferrugineus, read-out: LC50 (µg/mL) 95% CF
Procedure: (§1) Cells were suspended in the methanolic extract at serially increasing concentrations for 40 days. To dilute the compounds, TritonX-100 (0.1%) was added to acetone after the chemicals were dissolved. Adults or larvae of R. ferrugineus were purchased. They were then cultured using long lengths of sugar cane stem. The extracts’ anti-larvae action was assessed by applying topically to larvae and keeping them at 4–5 °C for 5 min. Utilizing a manually controlled micro-applicator, each larva had extract injected into its dorsum in three separate 10 µL doses using a 50-ll micro-syringe from Hertfordshire, UK’s Burkard Manufacturing Co., Ltd. (MS-N50; Shizuoka, Japan’s Ito Corp.). Five larvae in a box with three replications were fed on portions of long sugarcane stem measuring 10 cm. […] The sugarcane stem’s ten-centimeter-long portions cut into equal longitudinal halves were used to measure the antifeedant activity against adults. Long sections of sugarcane stem with a surface area of approximately 32.2 cm^2 were dried in air at room temperature, assuming a dipping time of 10 s and an initial serial concentration of (10 mL). Each treated object remained in a plastic container. Each box included an additional pair (male and female). Each therapy was administered ten times. In total, 24-, 48-, 72-, and 96-h feeding observations were assessed.
(§2) Statistics and probit analysis were performed using SPSS 25.0, as mentioned by Finney. To sum up, all numerical predictions of toxicity variables and findings were presented as the mean ± SE. We regressed mortality and translated the resulting dosage to an LC50 value (µg/mL). […] Enzyme activity data were analyzed using an ANOVA. Means were separated using the SNK (Student–Newman–Keuls) test, and deviations at the p ˂ 0.05 level were considered noteworthy.

[2] = system: cysteine protease of R. ferrugineus midgut; assay: Cysteine protease activity in midgut of treated larvae (in vivo); parameters: species or system Rhynchophorus ferrugineus; conditions: larvae treated 24 h, midgut preparation
Procedure: (§3) Utilizing the substrate N-benzoyl-Phe-Val-Arg-p-nitroanilide hydrochloride and certain modifications, the cysteine proteinases of R. ferrugineus homogenate from the fourth midgut instar was tested for activity. Ten larvae of the fourth midgut were carefully taken out, dissected, and periodically washed with 0.9% (w/v) NaCl solution, assay buffer containing 50 mM HEPS, 5 mM DTT, and 0.1% Triton X-100 (v/v) (pH 8.0, 500 µL) was used to homogenize the samples. The homogenates were spun using a cooling Sigma 3k30 centrifuge for 30 min at 5000 rpm. […] Before introducing 100 µL of the substrate, 10 µL of the supernatant was incubated in assay buffer (60 µL, pH = 8) at 37 °C for 30 min. Enzyme samples in 10 µL were incubated for 10 min with iodoacetic acid before the addition of the substrate. […] The absorbance at 520 nm was measured after spinning the reaction for 6 min at 5000 rpm. The activity in the midgut was assayed at OD520.60 min^−1 mg^−1 of protein with an ELISA rapid reader.

[3] = system: R. ferrugineus 4th larvae; assay: Topical application (contact insecticide) to fourth instar larvae; format: in vivo, Rhynchophorus ferrugineus; conditions: for LD50 (µg/Larvae) 95% CF: 4th larvae, topical, 95% confidence limits in brackets; for LD50: larvae
Procedure: as §1, §2

[4] = molecular target: total proteases of R. ferrugineus midgut; assay: Total proteolytic enzyme activity of 4th instar midgut homogenate, azocasein (in vitro)
Procedure: (§4) The homogenate of R. ferrugineus 4th midgut instar larvae (lab strain) was assayed for total proteolytic enzyme activity using azocasein, as Darrag et al. [26], with modifications. Ten 4th midgut larval homogenates were carefully removed, incised, and then rinsed in a solution containing 0.9% NaCl before even being homogenized in a buffer (500 µL) containing 5 mM dithiothreitol (DTT), 0.1% (v/v) Triton X-100, and 50 mM N-2-hydroxyethyl piperazine-N′-2-ethane sulphonic acid (HEPS), and 8.0 pH. It was spun in a centrifuge (Sigma 3k30), and the remaining homogenates were from a preliminary phase for 30 min at 5000 rpm. Using the supernatants, the protein concentration and proteolytic enzyme activity were determined. […] Before each reaction experiment, 40-day-old methanolic extract of cell suspension, pure chemicals, and 10 μL of enzyme specimens were incubated for 10 min. The addition of the substrate initiated the reaction, which was allowed for 20 min in the case of leupeptin before being terminated 180 min later by adding 300 µL of cold tri-chloroacetic acid (TCA) (10%, v/v). Twenty minutes were spent centrifuging the mixture at 5000 rpm (Sigma 3k30). Overall, 10 µL of NaOH (10 N) was added to the supernatant, and the absorbance was measured using an ELISA plate reader at 450 nm to quantify the enzymes’ specific activity as OD450/mg protein/h.
(§5) An experiment that was set up free of potential inhibitors served as a control. An ELISA plate fast reader measured the enzymes’ absorption at various wavelengths. For each inhibitor, the control enzyme’s percentage activity was assessed for each enzyme. Four instars midgut larvae were treated with previous concentrations of extracts or compounds, assessed as previously mentioned, to measure the protease activity in vivo. Larvae were subjected to extract- and compound-treated leaf discs for 24 h.

[5] = system: trypsin proteinase of R. ferrugineus midgut; assay: Trypsin activity in midgut of treated larvae (in vivo); conditions: larvae treated 24 h, midgut preparation
Procedure: (§6) We used a serine protease assay buffer and a modified version of the fast microplate method to analyze the serine proteinase’s specific activity in mixtures (150 µL) [26]. […] The sample (10 µL) was diluted using an assay buffer to 50 µL to determine the presence of trypsin proteinase, chymotrypsin proteinase, and elastase. Assay buffer was used to dilute stock substrates of BAρNA (100 mg/mL DMSO), both SAAPFρNA and SAAPLρNA (100 mg/mL DMF), to 1.0 mg/mL. To halt the reaction after 15 min of incubation at 37 °C, 50 µL of acetic acid (30%, v/v) was added. The intensity of the activity was measured using a 405 nm ELISA plate reader. A denaturation enzyme was used in place of an active enzyme in the experiment mixture. For three substrates (SAAPLρNA, BAρNA, and SAAPFρNA), activity levels of certain proteinases were assessed as OD mg^−1 protein min^−1.
as §5

[6] = molecular target: metalloprotease of R. ferrugineus midgut; assay: Metalloproteinase specific activity, CEGR substrate (in vitro); conditions: 4th instar midgut homogenate
Procedure: (§7) The ten midgut larvae from the fourth stage were neatly eliminated, dissected, and repeatedly washed with 0.9% NaCl solution. A 500 µL protease test solution, including 50 mM HEPS, 0.1% Triton X-100, and 5 mM DTT (pH 8.0), was utilized to homogenize the midgut instar. The homogenates were then centrifuged employing a Sigma 3k30 (cooling centrifuge) at 5000 rpm for 30 min to evaluate the supernatant’s enzyme activity and protein content. Before introducing CEGR (125 µL, 2% (w/v)), each experiment’s supernatant (10 µL) was incubated in an assay buffer (60 µL) at 37 °C for 20 min (pH 8). During a 10 min incubation period without a substrate, 10 µL enzyme samples were tested (20 min. for EDTA, EGTA, 1.10, Phenanthroline). After 180 min at 37 °C, 300 µL of cold TCA, 10% (v/v), was used to terminate the reaction. For the next 20 min, the mixture was spun (5000 rpm, Sigma 3K30). The absorbance was measured at 450 nm after mixing the supernatant with hydroxide solution (10 µL, 10 N) using an ELISA reader. An enzyme-free assay combination was utilized as a blank, and particular activity was evaluated utilizing the OD493 mg^−1 protein min^−1 and an enzyme-free blank specimen.
as §5

[7] = molecular target: cysteine protease of R. ferrugineus midgut; assay: Cysteine proteinase activity (in vitro); format: biochemical, Rhynchophorus ferrugineus; conditions: 4th instar midgut homogenate
Procedure: as §3

[8] = molecular target: trypsin proteinase of R. ferrugineus midgut; assay: Serine proteinase specific activity, trypsin (in vitro); conditions: 4th instar midgut homogenate
Procedure: as §6, §5

[9] = system: total proteases of R. ferrugineus midgut; assay: Total protease activity in midgut of treated larvae (in vivo); conditions: larvae treated 24 h, midgut preparation
Procedure: as §4, §5

[10] = molecular target: elastase of R. ferrugineus midgut; assay: Serine proteinase specific activity, elastase (in vitro); format: biochemical, Rhynchophorus ferrugineus; conditions: 4th instar midgut homogenate
[11] = system: elastase of R. ferrugineus midgut; assay: Elastase activity in midgut of treated larvae (in vivo); parameters: species or system Rhynchophorus ferrugineus; conditions: larvae treated 24 h, midgut preparation
[12] = system: gut proteases of R. ferrugineus fourth larval instar; assay: Specific protease inhibitors against gut proteases of fourth larval instar (in vitro); format: biochemical, Rhynchophorus ferrugineus; conditions: Figure S2, in vitro
Procedure: As a starting point (blank), an assessment combination not containing enzymes was utilized. TLCK (trypsin proteinase inhibitor), PMSF (general serine proteinase inhibitor), EDTA (EDTA-metalloproteinase inhibitor), iodoacetic acid (an iodoacetic acid-cysteine proteinase inhibitor), TPCK (chymotrypsin-proteinase inhibitor), and Leupeptin (as general proteinase inhibitor) were added to the reactions. Homogenates of larval fourth-gut tissue were prepared using the same methodology described for the enzyme activity test. The inhibitory test was conducted via a microplate assay, as reported previously. A series of inhibitor levels were prepared to determine the greatest inhibition activity. Concentrations of 0.01, 0.05, 0.1, and 1.0 mM leupeptin; 0.005, 0.01, 0.05, 0.1, and 1 mM TLCK and TPCK; 0.1, 1.0, 10, 50, and 100 mM PMSF; and 0.01, 0.05, 0.1, 1, and 2 mM iodoacetic acid, 100 mM; 1,10 phenanthroline, EDTA, and EGTA concentrations of 0.1, 1, 10, 50, and 100 mM.

[13] = system: metalloprotease of R. ferrugineus midgut; assay: Metalloprotease activity in midgut of treated larvae (in vivo); conditions: larvae treated 24 h, midgut preparation
Procedure: as §7, §5

Compound: C=C1CC/C=C(\C)CC[C@@H]2[C@@H]1CC2(C)C [β-caryophyllene]
LC50 [1]: 1520 µg/mL (≈ 7450 µM)
IC50 cysteine protease (in vivo) [2]: 586.3 µg/mL (≈ 2870 µM)
LD50 (µg/Larvae) 95% CF [3]: 20.1 (18.7–21.4) µg/Larvae
LD50 ([3]; topical application): 20.1 µg/larva
IC50 total proteases (in vitro) [4]: 176.3 µg/mL (≈ 863 µM)
IC50 trypsin proteinase (in vivo) [5]: 489.3 µg/mL and 542.8 µg/mL
IC50 metalloprotease (in vitro) [6]: 314.5 µg/mL (≈ 1540 µM)
IC50 cysteine protease (in vitro) [7]: 204.4 µg/mL (≈ 1000 µM)
IC50 trypsin proteinase (in vitro) [8]: 70.4 µg/mL (≈ 344 µM)
IC50 total proteases (in vivo) [9]: 748.2 µg/mL (≈ 3660 µM)

Compound: C=CCc1ccc(O)c(OC)c1 [eugenol]
LC50 [1]: 1460 µg/mL (≈ 8890 µM)
IC50 cysteine protease (in vivo) [2]: 453.1 µg/mL (≈ 2760 µM)
LD50 (µg/Larvae) 95% CF [3]: 14.2 (13.1–15.4) µg/Larvae
LD50 [3]: 14.2 µg/larva
LD50 ([3]; topical application): 14.2 µg/larva
IC50 total proteases (in vitro) [4]: 97.6 µg/mL (≈ 594 µM)
IC50 trypsin proteinase (in vivo) [5]: 612.8 µg/mL (≈ 3730 µM)
IC50 metalloprotease (in vitro) [6]: 478.6 µg/mL (≈ 2910 µM)
IC50 elastase (in vitro) [10]: 165.7 µg/mL (≈ 1010 µM)
IC50 elastase (in vivo) [11]: 346.8 µg/mL (≈ 2110 µM)
IC50 cysteine protease (in vitro) [7]: 294.4 µg/mL (≈ 1790 µM)
IC50 trypsin proteinase (in vitro) [8]: 247.2 µg/mL (≈ 1510 µM)
IC50 total proteases (in vivo) [9]: 201.4 µg/mL (≈ 1230 µM)

IC50 total proteases (in vitro) [4]: 268.1 µg/mL (≈ 1970 µM)
IC50 metalloprotease (in vitro) [6]: 526.8 µg/mL (≈ 3870 µM)
IC50 elastase (in vitro) [10]: 154.3 µg/mL (≈ 1130 µM)
IC50 trypsin proteinase (in vitro) [8]: 229.7 µg/mL (≈ 1690 µM)
Compound: CC1=CCC(C(C)C)=CC1 [γ-terpinene]
IC50 trypsin proteinase (in vivo) [5]: 594.1 µg/mL (≈ 4360 µM)
IC50 elastase (in vivo) [11]: 315.8 µg/mL (≈ 2320 µM)
IC50 total proteases (in vivo) [9]: 337.4 µg/mL (≈ 2480 µM)

Compound: O=C(O)CN(CCOCCOCCN(CC(=O)O)CC(=O)O)CC(=O)O [EGTA]
Effect on extracted gut proteases of the fourth larval instar [12]: significantly inhibited

Compound: C=CCc1ccc(OC)cc1 [estragole]
LC50 [1]: 3590 µg/mL (≈ 24200 µM)
IC50 total proteases (in vitro) [4]: 254.7 µg/mL (≈ 1720 µM)
IC50 metalloprotease (in vivo) [13]: 1014.1 µg/mL (≈ 6840 µM)
IC50 trypsin proteinase (in vivo) [5]: 628.7 µg/mL (≈ 4240 µM)
IC50 metalloprotease (in vitro) [6]: 627.8 µg/mL (≈ 4240 µM)
IC50 trypsin proteinase (in vitro) [8]: 257.5 µg/mL (≈ 1740 µM)
IC50 total proteases (in vivo) [9]: 314.8 µg/mL (≈ 2120 µM)

IC50 total proteases (in vitro) [4]: 107.4 µg/mL (≈ 526 µM)
IC50 metalloprotease (in vitro) [6]: 124.9 µg/mL (≈ 611 µM)
IC50 cysteine protease (in vitro) [7]: 238.5 µg/mL (≈ 1170 µM)
IC50 trypsin proteinase (in vitro) [8]: 66.8 µg/mL (≈ 327 µM)
Compound: C=C(C)C1CCC(C)C2=C(C1)C(C)CC2 (stereo not drawn) [α-guaiene]
LC50 [1]: 1490 µg/mL (≈ 7300 µM)
IC50 cysteine protease (in vivo) [2]: 642.3 µg/mL (≈ 3140 µM)
LD50 (µg/Larvae) 95% CF [3]: 19.2 (17.8–20.7) µg/Larvae
LD50 ([3]; topical application): 19.2 µg/larva
IC50 metalloprotease (in vivo) [13]: 594.7 µg/mL (≈ 2910 µM)
IC50 trypsin proteinase (in vivo) [5]: 454.4 µg/mL (≈ 2220 µM)
IC50 total proteases (in vivo) [9]: 694.7 µg/mL (≈ 3400 µM)

IC50 total proteases (in vitro) [4]: 207.4 µg/mL (≈ 1520 µM)
IC50 metalloprotease (in vitro) [6]: 321.7 µg/mL (≈ 2360 µM)
IC50 trypsin proteinase (in vitro) [8]: 157.2 µg/mL (≈ 1150 µM)
Compound: C=C/C(C)=C/CC=C(C)C [(E)-β-ocimene]
LC50 [1]: 3010 µg/mL (≈ 22100 µM)
LD50 (µg/Larvae) 95% CF [3]: 31.2 (27.4–32.8) µg/Larvae
LD50 ([3]; topical application): 31.2 µg/larva
IC50 total proteases (in vivo) [9]: 273.2 µg/mL (≈ 2010 µM)

Compound: C=C1/C=C/[C@H](C(C)C)CC/C(C)=C/CC1 [germacrene D]
LC50 [1]: 2040 µg/mL (≈ 10000 µM)
LD50 (µg/Larvae) 95% CF [3]: 21.3 (19.7–22.5) µg/Larvae
LD50 ([3]; topical application): 21.3 µg/larva
IC50 total proteases (in vitro) [4]: 182.1 µg/mL (≈ 891 µM)
IC50 metalloprotease (in vivo) [13]: 574.6 µg/mL (≈ 2810 µM)
IC50 metalloprotease (in vitro) [6]: 112.3 µg/mL (≈ 550 µM)
IC50 trypsin proteinase (in vitro) [8]: 144.2 µg/mL (≈ 706 µM)
IC50 total proteases (in vivo) [9]: 861.2 µg/mL (≈ 4210 µM)

Compound: C=C1CCC2CC1C2(C)CCC=C(C)C (stereo not drawn) [β-bergamotene]
LC50 [1]: 1290 µg/mL (≈ 6330 µM)
IC50 cysteine protease (in vivo) [2]: 521.4 µg/mL (≈ 2550 µM)
LD50 (µg/Larvae) 95% CF [3]: 17.2 (16.1–18.4) µg/Larvae
LD50 ([3]; topical application): 17.2 µg/larva
IC50 total proteases (in vitro) [4]: 78.9 µg/mL (≈ 386 µM)
IC50 metalloprotease (in vivo) [13]: 613.5 µg/mL (≈ 3000 µM)
IC50 trypsin proteinase (in vivo) [5]: 284.5 µg/mL (≈ 1390 µM)
IC50 metalloprotease (in vitro) [6]: 134.8 µg/mL (≈ 660 µM)
IC50 cysteine protease (in vitro) [7]: 119.6 µg/mL (≈ 585 µM)
IC50 trypsin proteinase (in vitro) [8]: 58.5 µg/mL (≈ 286 µM)
IC50 total proteases (in vivo) [9]: 598.3 µg/mL (≈ 2930 µM)
